Test [1] deals with T1, PRMT5 (Homo sapiens, UniProt O14744).
T1 construct: purchased Viva (custom protein)
The experiment in a line: PRMT5 IC50 assay in the presence of MTA as cofactor. It is filed as biochemical. As to conditions: for IC50: PRMT5, MTA as cofactor; for SAM/MTA Ratio: ratio between Ki in the presence of SAM and Ki in the presence of MTA. In short, it runs like this: (§1)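 Potency against PRMT5 is compared across cofactor states, where IC50 equals Ki×1.5 with SAM present and Ki×13.5 with MTA present.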

The subject of a further test is HAP1 MTAP-intact. The test can be described thus: SDMA in-cell western assay, HAP1 MTAP-intact cell line. It is filed as cell-based. As to conditions: Homo sapiens. The method in brief: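 Potency reflects cellular SDMA reduction, detected by in-cell western, in HAP1 cells with or without MTAP (endogenous expression versus null).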
The test system of a further test is HAP1 MTAP-deleted. The experiment in a line: SDMA in-cell western assay, HAP1 MTAP-deleted cell line. It is filed as cell-based. The conditions noted are these: for IC50: Homo sapiens, HAP1 MTAP-deleted cell line; for MTAP Intact/Deleted Ratio: IC50 ratio HAP1 MTAP-intact / HAP1 MTAP-deleted. In short, it runs like this: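 These are IC50 values from an in-cell western measuring SDMA. The HAP1 cells used carry no MTAP, in contrast to the isogenic partner line with endogenous MTAP expression.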

Test [2] concerns the target T1, PRMT5. The experiment in a line: PRMT5 IC50 assay in the presence of SAM as cofactor. In kind it is biochemical. The method in brief: as §1
Test [3] concerns the target T1, PRMT5. The experiment in a line: PRMT5 IC50 assay with no cofactor. It is filed as biochemical. The conditions noted are these: read-out: No Co-factor IC50. In short, it runs like this:
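Human PRMT5 inhibition, IC50 in μM; cofactor varied (SAM / MTA / none).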

Experimental findings from patent US11986471B2, “Compounds and methods of use” (Tango Therapeutics, Inc., priority 2018, dated 2024) are described below.

Some results are limits rather than exact numbers.

Usually IC50 stands for the concentration needed to halve the response being measured.

T1 sequence (O14744 whole entry): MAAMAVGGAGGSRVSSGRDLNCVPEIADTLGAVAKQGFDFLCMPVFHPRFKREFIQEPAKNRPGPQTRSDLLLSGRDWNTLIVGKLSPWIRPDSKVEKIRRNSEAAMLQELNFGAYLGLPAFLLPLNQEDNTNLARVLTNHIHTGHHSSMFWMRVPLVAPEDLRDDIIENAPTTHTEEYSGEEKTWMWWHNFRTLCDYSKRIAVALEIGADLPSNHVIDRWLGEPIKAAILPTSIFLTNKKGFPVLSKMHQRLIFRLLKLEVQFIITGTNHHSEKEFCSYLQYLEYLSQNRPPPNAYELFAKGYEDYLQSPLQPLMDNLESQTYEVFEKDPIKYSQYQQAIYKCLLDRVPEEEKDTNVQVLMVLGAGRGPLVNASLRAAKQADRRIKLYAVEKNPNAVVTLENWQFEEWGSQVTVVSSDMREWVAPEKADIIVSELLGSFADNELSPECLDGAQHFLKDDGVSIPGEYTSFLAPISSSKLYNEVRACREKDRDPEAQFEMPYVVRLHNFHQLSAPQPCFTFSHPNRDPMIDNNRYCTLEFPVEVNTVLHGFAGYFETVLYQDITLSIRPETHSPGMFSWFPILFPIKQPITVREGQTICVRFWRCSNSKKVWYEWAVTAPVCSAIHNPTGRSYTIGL
T1 sequence (Q9BQA1 whole entry partner): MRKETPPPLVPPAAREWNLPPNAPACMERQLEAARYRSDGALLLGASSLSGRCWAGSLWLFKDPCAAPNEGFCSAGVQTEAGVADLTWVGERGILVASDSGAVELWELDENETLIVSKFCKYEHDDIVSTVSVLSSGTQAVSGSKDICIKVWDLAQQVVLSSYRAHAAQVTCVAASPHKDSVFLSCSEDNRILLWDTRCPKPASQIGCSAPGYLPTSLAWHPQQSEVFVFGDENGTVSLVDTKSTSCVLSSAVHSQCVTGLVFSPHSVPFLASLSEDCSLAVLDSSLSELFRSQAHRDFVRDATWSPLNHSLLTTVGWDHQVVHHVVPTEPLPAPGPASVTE

For `O=C(NC[C@H](O)CN1CCc2c(ccc(OCc3cnco3)c2Cl)C1)c1cc(NC2COC2)nc(N2CCCCC2)n1` [Compound 327, (S)—N-(3-(5-chloro-6-(oxazol-5-ylmethoxy)-3N-dihydroisoquinolin-2(1H)-yl)-2-hydroxypropyl)-6-(oxetan-3-ylamino)-2-(piperidin-1-yl)pyrimidine-4-carboxamide], the IC50 on PRMT5 [1] is 50 to 500 nM; with HAP1 MTAP-intact it was no less than 10000 nM; in the test with HAP1 MTAP-deleted, 1000 to 10000 nM; at PRMT5 [2], 50 to 500 nM; on PRMT5 [3], 500 to 5000 nM. The “SAM/MTA Ratio” value on PRMT5 [1] was “A (a Ki ratio greater than or equal to 10 fold between the Ki in the presence of SAM and the Ki in the presence of MTA)”. Moreover, the “MTAP Intact/Deleted Ratio” value in the test with HAP1 MTAP-deleted is “B* (an IC50 ratio greater than or equal to 3 fold but lower than 10 fold between the IC50 in the HAP1 MTAP-intact cell line and the HAP1 MTAP-deleted cell line)”.

For the compound `O=C(NC[C@H](O)CN1CCc2cc(OCc3cnco3)ccc2C1)c1ccc(OC2CCN(Cc3ccncc3)CC2)cc1` [Compound 328], the IC50 was 50 to 500 nM at PRMT5 [1]; 1000 to 10000 nM in the test on HAP1 MTAP-intact; less than 1000 nM with HAP1 MTAP-deleted; 50 to 500 nM on PRMT5 [2]; 500 to 5000 nM on PRMT5 [3]. At PRMT5 [1], the “SAM/MTA Ratio” value was “A (a Ki ratio greater than or equal to 10 fold between the Ki in the presence of SAM and the Ki in the presence of MTA)”. For the same compound, the “MTAP Intact/Deleted Ratio” value in the test on HAP1 MTAP-deleted was “C* (an IC50 ratio of less than 3 fold between the IC50 in the HAP1 MTAP-intact cell line and the HAP1 MTAP-deleted cell line)”.

Take `CN(C)CCOc1cc(C(=O)NC[C@H](O)CN2CCc3c(ccc(OCc4cnco4)c3Cl)C2)cc(NC2CCC2)n1` [Compound 329, (S)—N-(3-(5-chloro-6-(oxazol-5-ylmethoxy)-3N-dihydroisoquinolin-2(1H)-yl)-2-hydroxypropyl)-2-(cyclobutylamino)-6-(2-(dimethylamino)ethoxy)isonicotinamide]: the IC50 on PRMT5 [1] is less than 50 nM; with HAP1 MTAP-intact, no less than 10000 nM; in the test with HAP1 MTAP-deleted, 1000 to 10000 nM; at PRMT5 [2], 50 to 500 nM; on PRMT5 [3], 500 to 5000 nM. Moreover, the “SAM/MTA Ratio” value on PRMT5 [1] was “A (a Ki ratio greater than or equal to 10 fold between the Ki in the presence of SAM and the Ki in the presence of MTA)”. The “MTAP Intact/Deleted Ratio” value with HAP1 MTAP-deleted is “B* (an IC50 ratio greater than or equal to 3 fold but lower than 10 fold between the IC50 in the HAP1 MTAP-intact cell line and the HAP1 MTAP-deleted cell line)”.

Take `O=C(NC[C@H](O)CN1CCc2c(ccc(OCc3cnco3)c2Cl)C1)c1ccc(OC2CCN(Cc3ccccc3)CC2)cc1` [Compound 330, (S)-4-((1-benzylpiperidin-4-yl)oxy)-N-(3-(5-chloro-6-(oxazol-5-ylmethoxy)-3,4-dihydroisoquinolin-2(1H)-yl)-2-hydroxypropyl)benzamide]: the IC50 at PRMT5 [1] is 50 to 500 nM; with HAP1 MTAP-intact, no less than 10000 nM; with HAP1 MTAP-deleted it was no less than 10000 nM; on PRMT5 [2], 50 to 500 nM; at PRMT5 [3], 500 to 5000 nM. Further, at PRMT5 [1], the “SAM/MTA Ratio” value is “A (a Ki ratio greater than or equal to 10 fold between the Ki in the presence of SAM and the Ki in the presence of MTA)”. Further, in the test with HAP1 MTAP-deleted, the “MTAP Intact/Deleted Ratio” value was “C* (an IC50 ratio of less than 3 fold between the IC50 in the HAP1 MTAP-intact cell line and the HAP1 MTAP-deleted cell line)”.

Turning to `Cc1ncoc1COc1ccc2c(c1)CCN(C[C@@H](O)CNC(=O)c1cc(NC3CCCC3)ncn1)C2` [Compound 333, 6-(cyclopentylamino)-N-[(2S)-2-hydroxy-3-{6-[(4-methyl-1,3-oxazol-5-yl)methoxy]-1,2,3,4-tetrahydroisoquinolin-2-yl}propyl]pyrimidine-4-carboxamide], the IC50 at PRMT5 [1] is 50 to 500 nM; in the test on HAP1 MTAP-intact, less than 1000 nM; in the test on HAP1 MTAP-deleted it was less than 1000 nM; on PRMT5 [2], 50 to 500 nM; at PRMT5 [3], no less than 5000 nM. Also, at PRMT5 [1], the “SAM/MTA Ratio” value is “A (a Ki ratio greater than or equal to 10 fold between the Ki in the presence of SAM and the Ki in the presence of MTA)”. Further, the “MTAP Intact/Deleted Ratio” value with HAP1 MTAP-deleted was “C* (an IC50 ratio of less than 3 fold between the IC50 in the HAP1 MTAP-intact cell line and the HAP1 MTAP-deleted cell line)”.

With `O=C(NC[C@H](O)CN1CCc2cc(OCc3cnco3)ccc2C1)c1cc(NC2CCC2)ncc1F` [Compound 334, (S)-2-(cyclobutylamino)-5-fluoro-N-(2-hydroxy-3-(6-(oxazol-5-ylmethoxy)-3A-dihydroisoquinolin-2(1H)-yl)propyl)isonicotinamide], the IC50 at PRMT5 [1] is 50 to 500 nM; in the test with HAP1 MTAP-intact it was less than 1000 nM; in the test with HAP1 MTAP-deleted, less than 1000 nM; at PRMT5 [2], 500 to 5000 nM; at PRMT5 [3], no less than 5000 nM. In addition, the “SAM/MTA Ratio” value on PRMT5 [1] is “A (a Ki ratio greater than or equal to 10 fold between the Ki in the presence of SAM and the Ki in the presence of MTA)”. In addition, the “MTAP Intact/Deleted Ratio” value in the test on HAP1 MTAP-deleted is “C* (an IC50 ratio of less than 3 fold between the IC50 in the HAP1 MTAP-intact cell line and the HAP1 MTAP-deleted cell line)”.

With `O=C(NC[C@H](O)CN1CCc2c(ccc(OCc3cnco3)c2Cl)C1)c1cccc(NC2CCC2)c1` [Compound 335, (S)—N-(3-(5-chloro-6-(oxazol-5-ylmethoxy)-3,4-dihydroisoquinolin-2(1H)-yl)-2-hydroxypropyl)-3-(cyclobutylamino)benzamide], the IC50 is 500 to 5000 nM at PRMT5 [1]; no less than 10000 nM in the test with HAP1 MTAP-intact; no less than 10000 nM with HAP1 MTAP-deleted; 500 to 5000 nM on PRMT5 [2]; no less than 5000 nM on PRMT5 [3]. Further, the “SAM/MTA Ratio” value at PRMT5 [1] is “A (a Ki ratio greater than or equal to 10 fold between the Ki in the presence of SAM and the Ki in the presence of MTA)”. The “MTAP Intact/Deleted Ratio” value with HAP1 MTAP-deleted is “C* (an IC50 ratio of less than 3 fold between the IC50 in the HAP1 MTAP-intact cell line and the HAP1 MTAP-deleted cell line)”.

With `O=C(NC[C@H](O)CN1CCc2c(ccc(OCc3cnco3)c2Cl)C1)c1cc(NC2CCCC2)ncn1` [Compound 336, (S)—N-(3-(5-chloro-6-(oxazol-5-ylmethoxy)-3,4-dihydroisoquinolin-2(1H)-yl)-2-hydroxypropyl)-6-(cyclopentylamino)pyrimidine-4-carboxamide], the IC50 is 500 to 5000 nM on PRMT5 [1]; no less than 10000 nM in the test on HAP1 MTAP-intact; no less than 10000 nM in the test with HAP1 MTAP-deleted; 500 to 5000 nM on PRMT5 [2]; no less than 5000 nM on PRMT5 [3]. Moreover, on PRMT5 [1], the “SAM/MTA Ratio” value was “A (a Ki ratio greater than or equal to 10 fold between the Ki in the presence of SAM and the Ki in the presence of MTA)”. Moreover, in the test with HAP1 MTAP-deleted, the “MTAP Intact/Deleted Ratio” value was “C* (an IC50 ratio of less than 3 fold between the IC50 in the HAP1 MTAP-intact cell line and the HAP1 MTAP-deleted cell line)”.

As to `O=C(NC[C@H](O)CN1CCc2c(ccc(OCc3cnco3)c2Br)C1)c1cc(NC2CCCC2)ncn1` [Compound 337], the IC50 was 500 to 5000 nM at PRMT5 [1]; no less than 10000 nM with HAP1 MTAP-intact; no less than 10000 nM in the test with HAP1 MTAP-deleted; 500 to 5000 nM at PRMT5 [2]; no less than 5000 nM on PRMT5 [3]. For the same compound, the “SAM/MTA Ratio” value on PRMT5 [1] was “A (a Ki ratio greater than or equal to 10 fold between the Ki in the presence of SAM and the Ki in the presence of MTA)”. For the same compound, the “MTAP Intact/Deleted Ratio” value in the test on HAP1 MTAP-deleted was “C* (an IC50 ratio of less than 3 fold between the IC50 in the HAP1 MTAP-intact cell line and the HAP1 MTAP-deleted cell line)”.

Turning to `Cc1ncoc1COc1ccc2c(c1Br)CCN(C[C@@H](O)CNC(=O)c1cc(NC3CCC3)ncn1)C2` [Compound 338, (S)—N-(3-(5-bromo-6-((4-methyloxazol-5-yl)methoxy)-3,4-dihydroisoquinolin-2(1H)-yl)-2-hydroxypropyl)-6-(cyclobutylamino)pyrimidine-4-carboxamide], the IC50 is 500 to 5000 nM on PRMT5 [1]; no less than 10000 nM in the test on HAP1 MTAP-intact; no less than 10000 nM with HAP1 MTAP-deleted; 500 to 5000 nM at PRMT5 [2]; no less than 5000 nM on PRMT5 [3]. Also, on PRMT5 [1], the “SAM/MTA Ratio” value is “A (a Ki ratio greater than or equal to 10 fold between the Ki in the presence of SAM and the Ki in the presence of MTA)”. In addition, the “MTAP Intact/Deleted Ratio” value with HAP1 MTAP-deleted is “C* (an IC50 ratio of less than 3 fold between the IC50 in the HAP1 MTAP-intact cell line and the HAP1 MTAP-deleted cell line)”.

Take `Cc1ncoc1COc1ccc2c(c1Cl)CCN(C[C@@H](O)CNC(=O)c1cc(NC3CCCC3)ncn1)C2` [Compound 339, N-[(2S)-3-[5-chloro-6-[(4-methyl-1,3-oxazol-5-yl)methoxy]-1,2,3,4-tetrahydroisoquinolin-2-yl)-2-hydroxypropyl]-6-(cxclopentylamino)pyrimidine-4-carboxamide]: the IC50 at PRMT5 [1] was 50 to 500 nM; in the test on HAP1 MTAP-intact, no less than 10000 nM; in the test with HAP1 MTAP-deleted, no less than 10000 nM; at PRMT5 [2], 500 to 5000 nM; at PRMT5 [3] it was no less than 5000 nM. For the same compound, the “SAM/MTA Ratio” value on PRMT5 [1] is “A (a Ki ratio greater than or equal to 10 fold between the Ki in the presence of SAM and the Ki in the presence of MTA)”. The “MTAP Intact/Deleted Ratio” value in the test with HAP1 MTAP-deleted is “C* (an IC50 ratio of less than 3 fold between the IC50 in the HAP1 MTAP-intact cell line and the HAP1 MTAP-deleted cell line)”.
